The NIST ThermoML archive (doi:10.1021/je500804j)
Numbers after ± are expanded uncertainties.

Experiment: mn = molality of the nth substance listed, in mol/kg
Details: 101 kPa, Liquid, Alternating current cell with electrodes

CCCCCCCC[N+](C)(C)CCCCCCCCCCCC[N+](C)(C)CCCCCCCC.[Br-].[Br-] + O
Details | electrical conductivity [S/m]
308.15 K, m1 = 0.01941 | 0.3482 ± 0.0014
308.15 K, m1 = 0.02017 | 0.3578 ± 0.0015
308.15 K, m1 = 0.02093 | 0.3674 ± 0.0015
308.15 K, m1 = 0.02167 | 0.3751 ± 0.0015
308.15 K, m1 = 0.0224 | 0.3838 ± 0.0016
308.15 K, m1 = 0.02312 | 0.3913 ± 0.0016
308.15 K, m1 = 0.02383 | 0.4003 ± 0.0016
308.15 K, m1 = 0.02453 | 0.4069 ± 0.0016
308.15 K, m1 = 0.02522 | 0.4161 ± 0.0017
308.15 K, m1 = 0.02589 | 0.421 ± 0.0017
308.15 K, m1 = 0.02722 | 0.4336 ± 0.0018
308.15 K, m1 = 0.02787 | 0.4365 ± 0.0018
308.15 K, m1 = 0.02851 | 0.4424 ± 0.0018
308.15 K, m1 = 0.02956 | 0.4571 ± 0.0019
308.15 K, m1 = 0.03058 | 0.4621 ± 0.0019
308.15 K, m1 = 0.03158 | 0.4749 ± 0.0019
308.15 K, m1 = 0.03256 | 0.48 ± 0.0019
308.15 K, m1 = 0.03351 | 0.489 ± 0.002
308.15 K, m1 = 0.03536 | 0.5074 ± 0.0021
308.15 K, m1 = 0.03625 | 0.5158 ± 0.0021
308.15 K, m1 = 0.03712 | 0.5223 ± 0.0021
308.15 K, m1 = 0.03798 | 0.527 ± 0.0021
308.15 K, m1 = 0.03964 | 0.541 ± 0.0022
308.15 K, m1 = 0.04123 | 0.5548 ± 0.0022
308.15 K, m1 = 0.04275 | 0.5671 ± 0.0023
308.15 K, m1 = 0.04422 | 0.5777 ± 0.0023
308.15 K, m1 = 0.04563 | 0.5885 ± 0.0024
308.15 K, m1 = 0.04699 | 0.5986 ± 0.0024
308.15 K, m1 = 0.04829 | 0.6068 ± 0.0024
308.15 K, m1 = 0.05077 | 0.6251 ± 0.0025
308.15 K, m1 = 0.05194 | 0.6322 ± 0.0026
313.15 K, m1 = 0.00357 | 0.06951 ± 0.00058
313.15 K, m1 = 0.00692 | 0.1517 ± 0.00076
313.15 K, m1 = 0.01009 | 0.2177 ± 0.00095
313.15 K, m1 = 0.01308 | 0.2687 ± 0.0011
313.15 K, m1 = 0.01591 | 0.3262 ± 0.0014
313.15 K, m1 = 0.01726 | 0.3465 ± 0.0014
313.15 K, m1 = 0.01859 | 0.3645 ± 0.0015
313.15 K, m1 = 0.01987 | 0.3859 ± 0.0016
313.15 K, m1 = 0.02113 | 0.4024 ± 0.0016
313.15 K, m1 = 0.02187 | 0.4121 ± 0.0017
313.15 K, m1 = 0.02259 | 0.4248 ± 0.0017
313.15 K, m1 = 0.02331 | 0.4317 ± 0.0017
313.15 K, m1 = 0.02401 | 0.4367 ± 0.0018
313.15 K, m1 = 0.02471 | 0.4441 ± 0.0018
313.15 K, m1 = 0.02539 | 0.4521 ± 0.0018
313.15 K, m1 = 0.02606 | 0.4597 ± 0.0019
313.15 K, m1 = 0.02673 | 0.467 ± 0.0019
313.15 K, m1 = 0.02803 | 0.4808 ± 0.0019
313.15 K, m1 = 0.02866 | 0.4878 ± 0.002
313.15 K, m1 = 0.02929 | 0.4944 ± 0.002
313.15 K, m1 = 0.03052 | 0.5075 ± 0.0021
313.15 K, m1 = 0.03112 | 0.5138 ± 0.0021
313.15 K, m1 = 0.03171 | 0.5209 ± 0.0021
313.15 K, m1 = 0.0323 | 0.5266 ± 0.0021
313.15 K, m1 = 0.03326 | 0.5361 ± 0.0022
313.15 K, m1 = 0.03419 | 0.5442 ± 0.0022
313.15 K, m1 = 0.03511 | 0.5535 ± 0.0022
313.15 K, m1 = 0.036 | 0.5625 ± 0.0023
313.15 K, m1 = 0.03688 | 0.5732 ± 0.0023
313.15 K, m1 = 0.03774 | 0.5794 ± 0.0023
313.15 K, m1 = 0.03858 | 0.5898 ± 0.0024
313.15 K, m1 = 0.0394 | 0.5956 ± 0.0024
313.15 K, m1 = 0.041 | 0.6125 ± 0.0025
313.15 K, m1 = 0.04253 | 0.6257 ± 0.0025
313.15 K, m1 = 0.044 | 0.637 ± 0.0026
313.15 K, m1 = 0.04541 | 0.6512 ± 0.0026
313.15 K, m1 = 0.04678 | 0.665 ± 0.0027
313.15 K, m1 = 0.04809 | 0.6744 ± 0.0027
313.15 K, m1 = 0.04935 | 0.6838 ± 0.0028
313.15 K, m1 = 0.05057 | 0.6958 ± 0.0028
313.15 K, m1 = 0.05175 | 0.7055 ± 0.0029
318.15 K, m1 = 0.00371 | 0.07542 ± 0.00057
318.15 K, m1 = 0.00722 | 0.164 ± 0.00082
318.15 K, m1 = 0.01052 | 0.245 ± 0.0011
318.15 K, m1 = 0.01364 | 0.3143 ± 0.0013
318.15 K, m1 = 0.01659 | 0.3687 ± 0.0015
318.15 K, m1 = 0.01801 | 0.3868 ± 0.0016
318.15 K, m1 = 0.01939 | 0.4168 ± 0.0017
318.15 K, m1 = 0.02073 | 0.43 ± 0.0018
318.15 K, m1 = 0.02204 | 0.4546 ± 0.0019
318.15 K, m1 = 0.0228 | 0.465 ± 0.0019
318.15 K, m1 = 0.02356 | 0.4755 ± 0.0019
318.15 K, m1 = 0.02431 | 0.4857 ± 0.002
318.15 K, m1 = 0.02577 | 0.5063 ± 0.0021
318.15 K, m1 = 0.02648 | 0.5133 ± 0.0021
318.15 K, m1 = 0.02718 | 0.5232 ± 0.0021
318.15 K, m1 = 0.02787 | 0.5323 ± 0.0022
318.15 K, m1 = 0.02856 | 0.5407 ± 0.0022
318.15 K, m1 = 0.02923 | 0.5499 ± 0.0022
318.15 K, m1 = 0.02989 | 0.5578 ± 0.0023
318.15 K, m1 = 0.03119 | 0.5732 ± 0.0023
318.15 K, m1 = 0.03245 | 0.5881 ± 0.0024
318.15 K, m1 = 0.03307 | 0.5997 ± 0.0024
318.15 K, m1 = 0.03368 | 0.6044 ± 0.0024
318.15 K, m1 = 0.03428 | 0.6091 ± 0.0025
318.15 K, m1 = 0.03488 | 0.6155 ± 0.0025
318.15 K, m1 = 0.03546 | 0.6234 ± 0.0025
318.15 K, m1 = 0.03604 | 0.6307 ± 0.0026
318.15 K, m1 = 0.03661 | 0.6379 ± 0.0026
318.15 K, m1 = 0.03717 | 0.6434 ± 0.0026
318.15 K, m1 = 0.03828 | 0.655 ± 0.0026
318.15 K, m1 = 0.03918 | 0.6646 ± 0.0027
318.15 K, m1 = 0.04006 | 0.6728 ± 0.0027
318.15 K, m1 = 0.04092 | 0.681 ± 0.0027
318.15 K, m1 = 0.04176 | 0.6915 ± 0.0028
318.15 K, m1 = 0.04259 | 0.6986 ± 0.0028
318.15 K, m1 = 0.04419 | 0.7143 ± 0.0029
318.15 K, m1 = 0.04573 | 0.732 ± 0.0029
318.15 K, m1 = 0.04721 | 0.7463 ± 0.003
318.15 K, m1 = 0.04863 | 0.7603 ± 0.0031
318.15 K, m1 = 0.05001 | 0.7719 ± 0.0031
318.15 K, m1 = 0.05133 | 0.7858 ± 0.0032
323.15 K, m1 = 0.00357 | 0.08471 ± 0.00069
323.15 K, m1 = 0.00693 | 0.1849 ± 0.00089
323.15 K, m1 = 0.01009 | 0.2444 ± 0.0011
323.15 K, m1 = 0.01308 | 0.3157 ± 0.0014
323.15 K, m1 = 0.01591 | 0.3898 ± 0.0016
323.15 K, m1 = 0.01859 | 0.436 ± 0.0018
323.15 K, m1 = 0.02113 | 0.483 ± 0.002
323.15 K, m1 = 0.02355 | 0.5236 ± 0.0021
323.15 K, m1 = 0.02585 | 0.561 ± 0.0023
323.15 K, m1 = 0.02803 | 0.5895 ± 0.0024
323.15 K, m1 = 0.02909 | 0.6082 ± 0.0025
323.15 K, m1 = 0.03012 | 0.623 ± 0.0025
323.15 K, m1 = 0.03113 | 0.6393 ± 0.0026
323.15 K, m1 = 0.03211 | 0.6494 ± 0.0026
323.15 K, m1 = 0.03307 | 0.6638 ± 0.0027
323.15 K, m1 = 0.03401 | 0.6772 ± 0.0027
323.15 K, m1 = 0.03512 | 0.6913 ± 0.0028
323.15 K, m1 = 0.03566 | 0.6951 ± 0.0028
323.15 K, m1 = 0.03619 | 0.6993 ± 0.0028
323.15 K, m1 = 0.03671 | 0.7037 ± 0.0028
323.15 K, m1 = 0.03775 | 0.7171 ± 0.0029
323.15 K, m1 = 0.03825 | 0.7266 ± 0.0029
323.15 K, m1 = 0.03875 | 0.7317 ± 0.0029
323.15 K, m1 = 0.03925 | 0.7354 ± 0.003
323.15 K, m1 = 0.03973 | 0.7413 ± 0.003
323.15 K, m1 = 0.04069 | 0.7517 ± 0.003
323.15 K, m1 = 0.04116 | 0.7566 ± 0.0031
323.15 K, m1 = 0.04162 | 0.7617 ± 0.0031
323.15 K, m1 = 0.04208 | 0.7694 ± 0.0031
323.15 K, m1 = 0.04254 | 0.7737 ± 0.0031
323.15 K, m1 = 0.04328 | 0.7801 ± 0.0031
323.15 K, m1 = 0.04401 | 0.7896 ± 0.0032
323.15 K, m1 = 0.04472 | 0.8 ± 0.0032
323.15 K, m1 = 0.04542 | 0.8049 ± 0.0032
323.15 K, m1 = 0.04611 | 0.8129 ± 0.0033
323.15 K, m1 = 0.04678 | 0.8211 ± 0.0033
323.15 K, m1 = 0.04745 | 0.831 ± 0.0034
323.15 K, m1 = 0.0481 | 0.8348 ± 0.0034
323.15 K, m1 = 0.04936 | 0.8479 ± 0.0034
323.15 K, m1 = 0.05058 | 0.8638 ± 0.0035
323.15 K, m1 = 0.05176 | 0.8724 ± 0.0035
